Reference: patent US20150087586A1, “PEGYLATED C-PEPTIDE” (Cebix, Inc., priority 2012, published 2015)

Experiment: Pharmacokinetic study of unmodified C-peptide in beagle dogs, single S.C. dose, plasma ELISA
Format: in vivo
Conditions: single S.C. dose 0.5 mg/kg
Protocol: A pharmacokinetic (PK) study was conducted to determine the C-peptide PK profile with unmodified C-peptide in beagle dogs.
Two male and one female dog received S.C. the unmodified synthetic human C-peptide (0.5 mg/kg; 0.025 mL/kg) formulated in phosphate buffered saline (20 mg/mL). Dogs were bled by venipuncture and blood samples were collected at predetermined time points over 14 days. Plasma samples were obtained after centrifugation of the blood (3,000 rpm for 10 minutes) and stored at −80° C. until analysis. A CRO with Good Laboratory Practice (GLP) capabilities (MicroConstants, Inc.; San Diego, Calif.) performed the bioanalytical work. […] Results were expressed as C-peptide concentrations. For the PK analysis, the below quantitation level (BQL) was treated as zero and nominal time points were used for all calculations. PK parameters were determined by standard model independent methods based on the individual plasma concentration-time data for each animal using model 200 in WinNonlin Professional 5.2.1 (Pharsight Corp., Mountain View, Calif.).

## CC(C)C[C@H](NC(=O)[C@H](C)NC(=O)[C@H](CC(C)C)NC(=O)[C@@H]1CCCN1C(=O)[C@H](CCC(N)=O)NC(=O)[C@H](CC(C)C)NC(=O)[C@H](CO)NC(=O)CNC(=O)[C@H](C)NC(=O)CNC(=O)[C@@H]1CCCN1C(=O)CNC(=O)CNC(=O)CNC(=O)[C@H](CC(C)C)NC(=O)[C@H](CCC(=O)O)NC(=O)[C@@H](NC(=O)[C@H](CCC(N)=O)NC(=O)CNC(=O)[C@@H](NC(=O)[C@H](CCC(N)=O)NC(=O)[C@H](CC(C)C)NC(=O)[C@H](CC(=O)O)NC(=O)[C@H](CCC(=O)O)NC(=O)[C@H](C)NC(=O)[C@@H](N)CCC(=O)O)C(C)C)C(C)C)C(=O)N[C@@H](CCC(=O)O)C(=O)NCC(=O)N[C@@H](CO)C(=O)N[C@@H](CC(C)C)C(=O)N[C@@H](CCC(N)=O)C(=O)O [CP-AQ]
14 days observation
  tolerability (clinical abnormalities): well tolerated
plasma
  time until circulating levels of C-peptide were below quantitation level (BQL): BQL within half a day
